From article PMC6508865, “Dynamics of thymol dietary supplementation in quail (Coturnix japonica): Linking bioavailability, effects on egg yolk total fatty acids and performance traits” (PLoS ONE, 2019)

What was measured:
[1] = test system: female Japanese quail (Coturnix japonica); assay: General welfare quality assessment; assay type: in vivo; conditions: 2, 4, 6.25 g of THY/kg feed
Method: A welfare assessment based on observations of physical characteristics was made. Female skin lesions and plumage status were evaluated following a procedure proposed by Pellegrini et al. that is an adapted version of the protocol developed by the Welfare Quality consortium. Briefly, skin lesions, which include wounds that have not healed in the legs, rear end, chest, cloacae and wings were determined using a score scale from 0 to 2, where "0" represents no lesions or scratches, "1" represents at least one lesion < 0.5 cm diameter or less than 3 pecks (punctiform damage ~ 0.1 cm of diameter) or scratches, and "2" reflects one lesion ≥ 0.5 cm of diameter or more than 3 pecks or scratches. Plumage damage was also determined using a score scale from 0 to 2 as follows: "0" represents individuals with no plumage damage or slight wear (only single feathers lacking), "1" represent individuals with one or more body parts that have moderate wear (i.e. damaged feathers worn or deformed) or one or more featherless areas < 1.5 cm in diameter at the larger extent and "2" corresponded to individuals that have at least one featherless area > 1.5 cm in diameter at the largest extent. […]

[2] = test system: female Japanese quail (Coturnix japonica); assay: Total fatty acid analysis in egg yolks (GC/MS of FAME); assay type: in vivo; conditions: for egg yolk SFA reduction disappeared after post-supplementation / persistence of reduced egg yolk 16:0 concentration after post-supplementation / persistence of reduced egg yolk 18:0 concentration after post-supplementation: 21 days of pS
Excerpt: All birds continued receiving a basal diet between 85 and 100 days of age and all variables (see below for details) were registered along this period (Pre-supplementation period, Fig 1). […] Once finished the S period, half of the quail were slaughtered for histological analysis (n = 25; Slaughter 1, Fig 1) and the other half were subjected to a pS period of 21 days, during which all females received the BASAL diet (pS, Fig 1). After this period, the remaining 25 animals were also slaughtered for histological analysis (Slaughter 2, Fig 1). In this way, we assessed whether THY induced changes in variables indicative of tissue damage and if so, whether the potential damages could reverse after 3 weeks of supplement withdrawal.
To assess changes in egg yolk total FA composition, egg physical characteristics, laying rate, body weight, feed intake and general welfare, during the S and pS periods, five sampling points were defined (Sample points, Fig 1): one initial sample point (at 0 days of S); three sample points during the S period (at 7, 14 and 28 days of S); and one sample point at the end of the pS period (21 days of pS). It should be noted that for determinations of THY concentration, eggs and quail droppings were collected offset from the other variables measured by 2 days, thus were collected on days 2, 9, 16, and 26 days of S, and 17 days of pS, respectively.
Eggs were obtained at each sample point (Sample points, Fig 1) and stored at -20°C until yolk total fatty acids analysis. Lipids were extracted from the yolk following homogenization in a suitable excess of chloroform/methanol (2:1 v/v). The solvents were removed under reduced pressure in a rotary evaporator. Lipids were subjected to alkaline saponification (1 mol/L potassium hydroxide in methanol), and the unsaponifiable matter was extracted with n-hexane. The fatty acid methyl esters (FAMEs) were prepared by transmethylation through treatment with 1 mol/L sulfuric acid in methanol and analyzed by gas chromatography/mass spectrometry (GC/MS). All chemicals used in this study were reagent-grade commercial products. FAMEs were analyzed by gas chromatography on a 60 m fused capillary column with an internal diameter of 0.25 mm (PerkinElmer Elite-WAX Polyethylene Glycol). The analysis was performed on a PerkinElmer Clarus® 600 GC/MS system equipped with a flame ionization detector (Waltham, MA, USA). […] The injection port temperature was 250°C and the detector temperature was 250°C. […] Peak identification was carried out by comparing the known retention times for the fatty acids reported with the temperature program and the chromatographic system used.

female quail = test system: female quail; parameters: method as in ref 41 = [41]; 41 Labaque MC , Kembro JM , Luna A , Marin RH . Effects of thymol feed supplementation on female Japanese quail ( Coturnix coturnix ) behavioral fear response . Anim Feed Sci Technol . 2013; 183 ( 1–); conditions: THY2, 2 g of THY per kg of feed; cited from earlier work
[3] = THY6, 6.25 g of thymol/kg of feed
[4] = all THY supplemented diets (2, 4, 6.25 g/kg of feed)

SMILES: Cc1ccc(C(C)C)c(O)c1 [THY, 2 isopropyl-5-methylphenol]
- effect on general well-being [1]: did not affect
- effect on egg yolk MUFA ([2]; 2, 4, 6.25 g of thymol/kg of feed, diet, time of sampling or interaction): No differences
- supplementation time by which reduced egg yolk 16:0 (palmitic acid) concentration was achieved ([2]; THY2, 2 g of thymol/kg of feed): 28 days of S
- supplementation time by which reduced egg yolk 18:0 (stearic acid) concentration was achieved ([2]; THY2, 2 g of thymol/kg of feed): 28 days of S
- supplementation time required for increasing egg yolk 22:5 (docosapentaenoic acid) ([2]; THY2, 2 g of thymol/kg of feed): 14 days of S
- supplementation time required to reduce egg yolk SFA concentration ([2]; THY2, 2 g of thymol/kg of feed): 28 days of S
- egg yolk SFA reduction disappeared after post-supplementation ([2]; THY2, 2 g of thymol/kg of feed): disappeared
- persistence of reduced egg yolk 16:0 concentration after post-supplementation ([2]; THY2, 2 g of thymol/kg of feed): returned to initial levels
- persistence of reduced egg yolk 18:0 concentration after post-supplementation ([2]; THY2, 2 g of thymol/kg of feed): continued
- effect on egg yolk PUFA concentration ([2]; THY2, 2 g of thymol/kg of feed, S period): failed to increase PUFA
- effect on egg yolk 16:1 (palmitoleic acid) ([2]; THY2, 2 g of thymol/kg of feed, by 7 and 14 days of S): transient decrease
- day of supplementation by which egg yolk polyunsaturated fatty acids increased ([2]; THY4, 4 g of thymol/kg of feed): 14 day of supplementation
- supplementation time by which reduced egg yolk 16:0 (palmitic acid) concentration was achieved ([2]; THY4, 4 g of thymol/kg of feed): 14 days of S
- supplementation time by which reduced egg yolk 18:0 (stearic acid) concentration was achieved ([2]; THY4, 4 g of thymol/kg of feed): 14 days of S
- supplementation time from which egg yolk 18:3 (linolenic acid) concentration was higher ([2]; THY4, 4 g of thymol/kg of feed): 14 days of S
- supplementation time from which egg yolk 20:4 (arachidonic acid) concentration was higher ([2]; THY4, 4 g of thymol/kg of feed): 14 days of S
- supplementation time required for increasing egg yolk 22:5 (docosapentaenoic acid) ([2]; THY4, 4 g of thymol/kg of feed): 14 days of S
- supplementation time required to reduce egg yolk SFA concentration ([2]; THY4, 4 g of thymol/kg of feed): 14 days of S
- egg yolk SFA reduction disappeared after post-supplementation ([2]; THY4, 4 g of thymol/kg of feed): not
- persistence of reduced egg yolk 16:0 concentration after post-supplementation ([2]; THY4, 4 g of thymol/kg of feed): continued
- persistence of reduced egg yolk 18:0 concentration after post-supplementation ([2]; THY4, 4 g of thymol/kg of feed): continued
- effect on egg yolk PUFA concentration ([2]; THY4, 4 g of thymol/kg of feed, S period and 21 days of pS): induced PUFA increments that remained enhanced even at 21 days of pS
- effect on egg yolk 16:1 (palmitoleic acid) ([2]; THY4, 4 g of thymol/kg of feed, at 21 days of pS): transient decrease
- day of supplementation by which egg yolk polyunsaturated fatty acids increased [2, 3]: 14 day of supplementation
- supplementation time by which reduced egg yolk 16:0 (palmitic acid) concentration was achieved [2, 3]: 14 days of S
- supplementation time by which reduced egg yolk 18:0 (stearic acid) concentration was achieved [2, 3]: 14 days of S
- supplementation time from which egg yolk 18:3 (linolenic acid) concentration was higher [2, 3]: 14 days of S
- supplementation time from which egg yolk 20:4 (arachidonic acid) concentration was higher [2, 3]: 14 days of S
- supplementation time required for increasing egg yolk 22:5 (docosapentaenoic acid) [2, 3]: 7 days of S
- egg yolk SFA reduction disappeared after post-supplementation [2, 3]: not
- persistence of reduced egg yolk 16:0 concentration after post-supplementation [2, 3]: continued
- persistence of reduced egg yolk 18:0 concentration after post-supplementation [2, 3]: returned to initial levels
- effect on egg yolk PUFA concentration ([2]; THY6, 6.25 g of thymol/kg of feed, S period and 21 days of pS): induced PUFA increments that remained enhanced even at 21 days of pS
- effect on egg yolk 16:1 (palmitoleic acid) ([2]; THY6, 6.25 g of thymol/kg of feed, at 21 days of pS): transient decrease
- supplementation time required to reduce egg yolk SFA concentration ([2]; THY6, 6.25 g of thymol/kg of feed, reduction of even greater magnitude): 14 days of S
- supplementation time from which egg yolk 20:5 (eicosapentaenoic acid) was increased [2, 4]: 7 days of S
- supplementation time from which egg yolk 22:6 (docosahexaenoic acid) was increased [2, 4]: 7 days of S
- bird's locomotor activity (female quail): without affecting
- female quail fear responses when exposed to stressful situations (female quail): reduces female quail fear responses
